In ChEMBL document CHEMBL3272126 (J Med Chem, 1977):

Assays:
[1] = test system: Mus musculus; assay: Toxicity in sc dosed albino mouse assessed as mydriasis; assay type: organism-based; details: in vivo
[2] = test system: Mus musculus; assay: Anti-tremorine activity against sc dosed albino mouse assessed as normalized dose for reversal of tremorine-induced spontaneous activity depression; assay type: functional

SMILES | ED50 [1] [mg/kg] | ND [2] [mg/kg]
CN1[C@@H]2CC[C@H]1CC(OC(=O)[C@H](CO)c1ccccc1)C2 (stereo partly drawn) [ENDO-ATROPINE] | 0.061 | 2.2
CN1[C@@H]2C[C@@H](OC(=O)[C@H](CO)c3ccccc3)C[C@H]1[C@@H]1O[C@@H]12 [SCOPOLAMINE] | 0.012 | 1.3
